# *1 amine or outer side, *2 acyl side, *3 side chain or, on linkers, in order; H or OH if unused. Where a SMILES comes first, the peptide text is derived from it. Side-chain parts run from the residue outwards. [ ]: non-standard residue; d: D form. The star is where a group is joined. γGlu = O=C(O)[C@H](CCC(=O)[*:2])N[*:1]; Palmitoyl = CCCCCCCCCCCCCCCC(=O)*; Orn = NCCC[C@H](N)C(=O)O
# Biological target: T1, human GLP-1 receptor (hGLP-1 R) (Homo sapiens, UniProt P43220)
# T1 construct: expressed in transfected cells; host or cells: HEK-293
# Experiment: cAMP response (HTRF) of HEK-293 cells stably expressing human GLP-1 receptor
# Assay type: cell-based
# Conditions: HEK-293 cells expressing human GLP-1 receptor, cAMP formation
# Procedure: cAMP content of cells was determined using a kit from Cisbio Corp. (cat. no. 62AM4PEC) based on HTRF (Homogenous Time Resolved Fluorescence). For preparation, cells were split into T175 culture flasks and grown overnight to near confluency in medium (DMEM/10% FBS). Medium was then removed and cells washed with PBS lacking calcium and magnesium, followed by proteinase treatment with accutase (Sigma-Aldrich cat. no. A6964). Detached cells were washed and resuspended in assay buffer (1×HBSS; 20 mM HEPES, 0.1% BSA, 2 mM IBMX) and cellular density determined. […] For measurement, 25 μl of test compound in assay buffer was added to the wells, followed by incubation for 30 minutes at room temperature.
# T1 sequence (P43220 24-463): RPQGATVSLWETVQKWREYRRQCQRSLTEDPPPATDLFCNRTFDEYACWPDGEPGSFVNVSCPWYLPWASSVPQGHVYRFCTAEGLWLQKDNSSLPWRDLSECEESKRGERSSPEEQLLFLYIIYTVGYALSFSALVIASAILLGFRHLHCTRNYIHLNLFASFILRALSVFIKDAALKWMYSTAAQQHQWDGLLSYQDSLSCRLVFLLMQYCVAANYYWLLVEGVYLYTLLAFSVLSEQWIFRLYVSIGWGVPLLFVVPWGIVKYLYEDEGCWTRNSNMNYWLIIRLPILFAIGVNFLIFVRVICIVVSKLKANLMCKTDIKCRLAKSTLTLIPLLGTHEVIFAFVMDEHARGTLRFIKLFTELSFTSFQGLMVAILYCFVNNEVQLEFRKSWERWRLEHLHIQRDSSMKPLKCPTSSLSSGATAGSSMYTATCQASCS
row,SMILES,EC50
1,CCCCCCCCCCCCCCCC(=O)N[C@@H](CCC(=O)NCCC[C@H](NC(=O)[C@H](CO)NC(=O)[C@@H]1CCCN1C(=O)[C@@H]1CCCN1C(=O)[C@@H]1CCCN1C(=O)[C@H](C)NC(=O)CNC(=O)[C@H](CO)NC(=O)[C@H](CO)NC(=O)[C@@H]1CCCN1C(=O)CNC(=O)CNC(=O)[C@H](CO)NC(=O)[C@H](CCCCN)NC(=O)[C@H](CC(C)C)NC(=O)[C@H](Cc1c[nH]c2ccccc12)NC(=O)[C@H](CCC(=O)O)NC(=O)[C@@H](NC(=O)[C@H](Cc1ccccc1)NC(=O)[C@H](CC(=O)O)NC(=O)[C@H](CCC(N)=O)NC(=O)[C@H](C)NC(=O)[C@H](CCCNC(=N)N)NC(=O)[C@H](CCCNC(=N)N)NC(=O)[C@H](CO)NC(=O)[C@H](CCC(=O)O)NC(=O)[C@H](CCSC)NC(=O)[C@H](CCC(N)=O)NC(=O)[C@H](CCCCN)NC(=O)[C@H](CO)NC(=O)[C@H](CC(C)C)NC(=O)[C@H](CC(=O)O)NC(=O)[C@H](CO)NC(=O)[C@@H](NC(=O)[C@H](Cc1ccccc1)NC(=O)[C@@H](NC(=O)CNC(=O)[C@H](CCC(N)=O)NC(=O)[C@@H](CO)NC(=O)[C@@H](N)Cc1c[nH]cn1)[C@@H](C)O)[C@@H](C)O)[C@@H](C)CC)C(N)=O)C(=O)O [(88)] (H-H[dS]QGTFTSDLSKQMESRRAQDFIEWLKSGGPSSGAPPPS[Orn]([γGlu-Palmitoyl])-NH2),5.1 pM
2,CCCCCCCCCCCCCCCC(=O)N[C@@H](CCC(=O)NCCCC[C@H](NC(=O)[C@H](CO)NC(=O)[C@@H]1CCCN1C(=O)[C@@H]1CCCN1C(=O)[C@@H]1CCCN1C(=O)[C@H](C)NC(=O)CNC(=O)[C@H](CO)NC(=O)[C@H](CO)NC(=O)[C@@H]1CCCN1C(=O)CNC(=O)CNC(=O)[C@H](C)NC(=O)[C@H](CCCCN)NC(=O)[C@H](CC(C)C)NC(=O)[C@H](Cc1c[nH]c2ccccc12)NC(=O)[C@H](CCC(=O)O)NC(=O)[C@@H](NC(=O)[C@H](Cc1ccccc1)NC(=O)[C@H](CC(=O)O)NC(=O)[C@H](CCCCN)NC(=O)[C@H](C)NC(=O)[C@H](C)NC(=O)[C@H](CCC(=O)O)NC(=O)[C@H](CCC(=O)O)NC(=O)[C@H](CCC(=O)O)NC(=O)[C@H](CCSC)NC(=O)[C@H](CCC(N)=O)NC(=O)[C@H](CCCCN)NC(=O)[C@H](CO)NC(=O)[C@H](CC(C)C)NC(=O)[C@H](CC(=O)O)NC(=O)[C@H](CO)NC(=O)[C@@H](NC(=O)[C@H](Cc1ccccc1)NC(=O)[C@@H](NC(=O)CNC(=O)[C@H](CCC(N)=O)NC(=O)[C@@H](CO)NC(=O)[C@@H](N)Cc1c[nH]cn1)[C@@H](C)O)[C@@H](C)O)[C@@H](C)CC)C(N)=O)C(=O)O [(110)] (H-H[dS]QGTFTSDLSKQMEEEAAKDFIEWLKAGGPSSGAPPPSK([γGlu-Palmitoyl])-NH2),2.9 pM
3,CCCCCCCCCCCCCCCC(=O)N[C@@H](CCC(=O)NCCCC[C@H](NC(=O)[C@@H]1CCCN1C(=O)[C@@H]1CCCN1C(=O)[C@@H]1CCCN1C(=O)[C@H](C)NC(=O)CNC(=O)[C@H](CO)NC(=O)[C@H](CO)NC(=O)[C@@H]1CCCN1C(=O)CNC(=O)CNC(=O)[C@H](CC(N)=O)NC(=O)[C@H](CCCCN)NC(=O)[C@H](CC(C)C)NC(=O)[C@H](Cc1c[nH]c2ccccc12)NC(=O)[C@H](CCC(=O)O)NC(=O)[C@@H](NC(=O)[C@H](Cc1ccccc1)NC(=O)[C@H](CC(=O)O)NC(=O)[C@H](CCC(N)=O)NC(=O)[C@H](C)NC(=O)[C@H](CCCNC(=N)N)NC(=O)[C@H](CCCNC(=N)N)NC(=O)[C@H](CO)NC(=O)[C@H](CC(=O)O)NC(=O)[C@H](CCSC)NC(=O)[C@H](CCC(N)=O)NC(=O)[C@H](CCCCN)NC(=O)[C@H](CO)NC(=O)[C@H](CC(C)C)NC(=O)[C@H](CC(=O)O)NC(=O)[C@H](CO)NC(=O)[C@@H](NC(=O)[C@H](Cc1ccccc1)NC(=O)[C@@H](NC(=O)CNC(=O)[C@H](CCC(N)=O)NC(=O)[C@H](CO)NC(=O)[C@@H](N)Cc1c[nH]cn1)[C@@H](C)O)[C@@H](C)O)[C@@H](C)CC)C(N)=O)C(=O)O [(6)],3.1 pM
4,CCCCCCCCCCCCCCCC(=O)N[C@@H](CCC(=O)NCCCC[C@H](NC(=O)[C@H](CO)NC(=O)[C@@H]1CCCN1C(=O)[C@@H]1CCCN1C(=O)[C@@H]1CCCN1C(=O)[C@H](C)NC(=O)CNC(=O)[C@H](CO)NC(=O)[C@H](CO)NC(=O)[C@@H]1CCCN1C(=O)CNC(=O)CNC(=O)[C@H](CO)NC(=O)[C@H](CCCCN)NC(=O)[C@H](CC(C)C)NC(=O)[C@H](Cc1c[nH]c2ccccc12)NC(=O)[C@H](CCC(=O)O)NC(=O)[C@@H](NC(=O)[C@H](Cc1ccccc1)NC(=O)[C@H](CC(C)C)NC(=O)[C@H](CCCNC(=N)N)NC(=O)[C@H](C)NC(=O)[C@H](CCCNC(=N)N)NC(=O)[C@H](CCCNC(=N)N)NC(=O)[C@H](CO)NC(=O)[C@H](CCC(=O)O)NC(=O)[C@H](CCSC)NC(=O)[C@H](CCC(N)=O)NC(=O)[C@H](CCCCN)NC(=O)[C@H](CO)NC(=O)[C@H](CC(C)C)NC(=O)[C@H](CC(=O)O)NC(=O)[C@H](CO)NC(=O)[C@@H](NC(=O)[C@H](Cc1ccccc1)NC(=O)[C@@H](NC(=O)CNC(=O)[C@H](CCC(N)=O)NC(=O)[C@@H](CO)NC(=O)[C@@H](N)Cc1c[nH]cn1)[C@@H](C)O)[C@@H](C)O)[C@@H](C)CC)C(N)=O)C(=O)O [(91)] (H-H[dS]QGTFTSDLSKQMESRRARLFIEWLKSGGPSSGAPPPSK([γGlu-Palmitoyl])-NH2),6.7 pM
5,CCCCCCCCCCCCCCCC(=O)N[C@@H](CCC(=O)NCCCC[C@H](NC(=O)[C@H](CO)NC(=O)[C@@H]1CCCN1C(=O)[C@@H]1CCCN1C(=O)[C@@H]1CCCN1C(=O)[C@H](C)NC(=O)CNC(=O)[C@H](CO)NC(=O)[C@H](CO)NC(=O)[C@@H]1CCCN1C(=O)CNC(=O)CNC(=O)[C@H](C)NC(=O)[C@H](CCCCN)NC(=O)[C@H](CC(C)C)NC(=O)[C@H](Cc1c[nH]c2ccccc12)NC(=O)[C@H](CCC(=O)O)NC(=O)[C@@H](NC(=O)[C@H](Cc1ccccc1)NC(=O)[C@H](CC(C)C)NC(=O)[C@H](CCC(N)=O)NC(=O)[C@H](C)NC(=O)[C@H](C)NC(=O)[C@H](CCC(=O)O)NC(=O)[C@H](CO)NC(=O)[C@H](CCC(=O)O)NC(=O)[C@H](CCSC)NC(=O)[C@H](CCC(N)=O)NC(=O)[C@H](CCCCN)NC(=O)[C@H](CO)NC(=O)[C@H](CC(C)C)NC(=O)[C@H](CC(=O)O)NC(=O)[C@H](CO)NC(=O)[C@@H](NC(=O)[C@H](Cc1ccccc1)NC(=O)[C@@H](NC(=O)CNC(=O)[C@H](CCC(N)=O)NC(=O)[C@@H](CO)NC(=O)[C@@H](N)Cc1c[nH]cn1)[C@@H](C)O)[C@@H](C)O)[C@@H](C)CC)C(N)=O)C(=O)O [(114)] (H-H[dS]QGTFTSDLSKQMESEAAQLFIEWLKAGGPSSGAPPPSK([γGlu-Palmitoyl])-NH2),3.1 pM
